Columns and labels:
Caco-2 cell monolayers = assay: Caco-2 permeation assay; format: in vitro ADME; settings: 5 μM, A-B direction, with Verapamil (25 μM)
Description: Assay 4: Caco-2 Permeation Assay
The Caco-2 permeation assay was performed to model the ability of test compounds to pass through the intestine and get into the blood stream after oral administration. The rate at which test compounds in solution permeate a cell monolayer designed to mimic the tight junction of human small intestinal monolayers was determined.
CacoReady 24-well transwell plates were obtained from ADMEcell (Alameda, Calif.). The compounds were evaluated at a concentration of 5 μM from 10 mM DMSO stock solutions in duplicate (n=2). The passive permeability of the compounds tested was evaluated using Caco-2 cell monolayers along with Verapamil (25 μM) to inhibit P-gp transport proteins in the apical to basolateral (A-B) direction. The experiment was conducted in a 37° C., 5% CO2 incubator. Caco-2 culture media consisted of standard filtered DMEM, FCS 10%, L-Glutamine 1% and PenStrep 1%. Basal assay plate was prepared by adding 750 μL of transport buffer to A-B wells. A CacoReady™ plate was prepared by removing the Caco-2 media from the apical wells and replacing with fresh transport media (200 μL repeated for a total of 3 washes). Blank media (200 μL) was then replaced with diluted compound for A-B wells. To begin the incubation, the basal plate was removed from the incubator and the apical section was added on top of it. Samples (40 μL) were collected from the apical and basal compartments for time zero (t0). Samples were collected again after 120 minutes (t120) from the apical and basal compartments. All samples were diluted and prepared for bioanalysis by LC-MS/MS. The permeation coefficient (Kp, mean A to B+ Verapamil Papparent) in cm/sec was calculated as dQ (flux)/(dt×Area×concentration).
In this assay, a Kp value less than about 5×10^−6 cm/sec is considered favorable to minimize systemic exposure and target the colon. A Kp value less than about 10×10^−6 cm/sec may also be sufficient to minimize systemic exposure and target the colon.

JAK1 = JAK1 (Homo sapiens (Human), UniProt P23458); assay: Biochemical JAK1 kinase assay (LanthaScreen)
Outline: (§1)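 GST-JAK + GFP-STAT1 peptide, HEPES pH 7.5/MgCl2/EGTA/Brij-35 buffer; cpd preincubation 1 h RT; ATP start, 1 h RT; stop with 10 mM EDTA + 2 nM Tb-anti-pSTAT1; TR-FRET 520/495. 4-parameter IC50 → pKi (Cheng-Prusoff).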

[1] = test system: IL-2 stimulated STAT5 phosphorylation in Tall-1 human T cell line (JAK3); assay: Cellular JAK3 potency assay: inhibition of IL-2 stimulated pSTAT5 in Tall-1 T cells; format: cell-based
Outline: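 Tall-1 cells, 45,000 per well, preincubated 1 hour with compound at 37 °C, then stimulated 30 minutes with IL-2 at 300 ng/ml final. pSTAT5 (Tyr694/699) in lysates quantified by AlphaLISA SureFire Ultra. pIC50 derived from inhibition curves, given as mean with SD.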

JAK3 = JAK3 (Homo sapiens (Human), UniProt P52333); assay: Biochemical JAK3 kinase assay (LanthaScreen)
Outline: as §1

Tyk2 = Tyk2 (Homo sapiens (Human), UniProt P29597); assay: Biochemical Tyk2 kinase assay (LanthaScreen)
Outline: as §1

JAK2 = JAK2 (Homo sapiens (Human), UniProt O60674); assay: Biochemical JAK2 kinase assay (LanthaScreen)
Outline: as §1

[2] = IL-2 stimulated pSTAT5, Tall-1 T cells
[3] = selectivity JAK3 over JAK1, difference of pKi

Sequence of JAK3 (P52333 whole entry): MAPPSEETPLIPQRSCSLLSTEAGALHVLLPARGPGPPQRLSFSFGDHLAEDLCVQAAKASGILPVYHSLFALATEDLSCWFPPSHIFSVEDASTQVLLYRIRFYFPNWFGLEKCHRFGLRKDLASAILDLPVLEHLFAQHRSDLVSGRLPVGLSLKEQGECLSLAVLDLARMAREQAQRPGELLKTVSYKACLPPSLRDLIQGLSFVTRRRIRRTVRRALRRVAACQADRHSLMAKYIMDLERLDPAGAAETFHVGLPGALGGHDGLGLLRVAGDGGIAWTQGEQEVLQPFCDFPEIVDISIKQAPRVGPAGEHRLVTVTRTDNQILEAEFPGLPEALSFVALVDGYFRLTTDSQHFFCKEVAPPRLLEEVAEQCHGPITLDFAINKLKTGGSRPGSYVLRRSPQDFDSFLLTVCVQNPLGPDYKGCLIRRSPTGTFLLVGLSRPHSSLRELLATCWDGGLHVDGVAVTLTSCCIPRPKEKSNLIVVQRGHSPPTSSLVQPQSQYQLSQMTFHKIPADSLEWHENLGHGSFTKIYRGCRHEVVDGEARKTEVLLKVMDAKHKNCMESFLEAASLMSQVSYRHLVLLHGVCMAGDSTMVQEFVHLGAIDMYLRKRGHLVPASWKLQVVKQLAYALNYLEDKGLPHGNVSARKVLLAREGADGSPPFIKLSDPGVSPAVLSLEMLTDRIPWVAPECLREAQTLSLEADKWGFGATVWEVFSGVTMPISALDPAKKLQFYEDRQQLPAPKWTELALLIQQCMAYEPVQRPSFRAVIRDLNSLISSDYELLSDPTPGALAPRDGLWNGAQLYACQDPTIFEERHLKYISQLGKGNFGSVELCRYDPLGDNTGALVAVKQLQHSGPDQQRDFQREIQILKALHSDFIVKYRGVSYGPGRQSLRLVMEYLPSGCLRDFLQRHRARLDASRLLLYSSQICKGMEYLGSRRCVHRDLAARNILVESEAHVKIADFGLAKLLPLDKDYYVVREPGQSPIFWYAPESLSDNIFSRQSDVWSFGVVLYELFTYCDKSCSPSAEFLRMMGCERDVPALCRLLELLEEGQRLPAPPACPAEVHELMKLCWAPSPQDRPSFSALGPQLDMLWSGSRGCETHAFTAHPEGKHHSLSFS
Sequence of JAK1 (P23458 whole entry): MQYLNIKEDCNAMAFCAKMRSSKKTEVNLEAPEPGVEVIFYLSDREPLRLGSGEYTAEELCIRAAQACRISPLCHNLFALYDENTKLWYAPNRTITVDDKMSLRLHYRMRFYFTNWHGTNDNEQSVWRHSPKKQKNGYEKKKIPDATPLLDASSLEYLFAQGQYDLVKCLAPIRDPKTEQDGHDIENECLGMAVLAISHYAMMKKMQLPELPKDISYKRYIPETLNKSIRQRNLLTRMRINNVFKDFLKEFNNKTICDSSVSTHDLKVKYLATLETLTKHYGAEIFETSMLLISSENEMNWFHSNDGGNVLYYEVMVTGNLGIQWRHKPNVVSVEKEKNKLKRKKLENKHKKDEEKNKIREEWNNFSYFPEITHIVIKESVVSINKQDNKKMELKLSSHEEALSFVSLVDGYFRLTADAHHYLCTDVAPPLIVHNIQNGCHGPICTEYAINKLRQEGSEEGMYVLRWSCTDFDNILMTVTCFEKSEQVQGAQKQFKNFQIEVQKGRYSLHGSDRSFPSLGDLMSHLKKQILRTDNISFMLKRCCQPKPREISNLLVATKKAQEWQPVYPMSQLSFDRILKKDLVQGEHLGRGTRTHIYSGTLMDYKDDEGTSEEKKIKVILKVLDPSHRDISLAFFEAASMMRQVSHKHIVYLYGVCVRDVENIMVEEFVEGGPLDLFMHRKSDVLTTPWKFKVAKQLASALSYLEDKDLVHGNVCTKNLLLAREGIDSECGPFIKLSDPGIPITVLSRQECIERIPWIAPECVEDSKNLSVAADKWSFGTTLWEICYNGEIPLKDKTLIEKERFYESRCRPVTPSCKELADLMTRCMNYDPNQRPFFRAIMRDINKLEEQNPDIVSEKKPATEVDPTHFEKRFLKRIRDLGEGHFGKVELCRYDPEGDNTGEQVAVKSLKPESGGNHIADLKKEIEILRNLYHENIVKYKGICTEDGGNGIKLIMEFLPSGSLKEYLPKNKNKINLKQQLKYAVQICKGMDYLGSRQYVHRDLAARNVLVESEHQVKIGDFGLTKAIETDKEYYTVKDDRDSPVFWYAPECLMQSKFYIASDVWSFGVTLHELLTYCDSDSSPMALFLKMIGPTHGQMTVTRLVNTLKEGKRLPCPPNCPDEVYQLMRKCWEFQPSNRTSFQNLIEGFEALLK
Sequence of JAK2 (O60674 whole entry): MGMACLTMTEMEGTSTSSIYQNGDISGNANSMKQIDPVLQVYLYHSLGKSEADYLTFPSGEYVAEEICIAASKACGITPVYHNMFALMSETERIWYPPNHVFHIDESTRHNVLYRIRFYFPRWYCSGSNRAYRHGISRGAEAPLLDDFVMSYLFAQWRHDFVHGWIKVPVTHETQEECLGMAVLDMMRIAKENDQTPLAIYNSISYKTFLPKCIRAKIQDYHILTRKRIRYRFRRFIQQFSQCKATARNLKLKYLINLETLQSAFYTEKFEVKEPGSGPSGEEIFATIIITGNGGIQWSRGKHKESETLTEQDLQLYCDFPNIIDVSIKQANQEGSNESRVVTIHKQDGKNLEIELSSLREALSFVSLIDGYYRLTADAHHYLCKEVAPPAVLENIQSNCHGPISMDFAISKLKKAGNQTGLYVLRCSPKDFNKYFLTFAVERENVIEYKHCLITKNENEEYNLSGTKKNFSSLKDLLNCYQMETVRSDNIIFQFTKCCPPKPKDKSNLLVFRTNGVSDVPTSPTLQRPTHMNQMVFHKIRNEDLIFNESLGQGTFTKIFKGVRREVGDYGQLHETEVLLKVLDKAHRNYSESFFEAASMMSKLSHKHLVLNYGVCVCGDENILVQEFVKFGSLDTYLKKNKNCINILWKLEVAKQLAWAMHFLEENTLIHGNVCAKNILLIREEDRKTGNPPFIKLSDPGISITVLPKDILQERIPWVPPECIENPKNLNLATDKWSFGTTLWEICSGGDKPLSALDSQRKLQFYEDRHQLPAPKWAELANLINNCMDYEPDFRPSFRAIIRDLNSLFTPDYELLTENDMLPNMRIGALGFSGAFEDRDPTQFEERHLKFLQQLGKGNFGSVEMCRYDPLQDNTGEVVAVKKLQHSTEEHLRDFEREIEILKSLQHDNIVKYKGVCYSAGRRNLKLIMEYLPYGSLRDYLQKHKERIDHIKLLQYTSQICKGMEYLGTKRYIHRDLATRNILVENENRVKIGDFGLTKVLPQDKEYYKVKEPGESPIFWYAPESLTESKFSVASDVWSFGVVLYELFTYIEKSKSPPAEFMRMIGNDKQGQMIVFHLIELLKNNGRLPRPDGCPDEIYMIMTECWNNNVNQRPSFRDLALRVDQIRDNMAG
Sequence of Tyk2 (P29597 whole entry): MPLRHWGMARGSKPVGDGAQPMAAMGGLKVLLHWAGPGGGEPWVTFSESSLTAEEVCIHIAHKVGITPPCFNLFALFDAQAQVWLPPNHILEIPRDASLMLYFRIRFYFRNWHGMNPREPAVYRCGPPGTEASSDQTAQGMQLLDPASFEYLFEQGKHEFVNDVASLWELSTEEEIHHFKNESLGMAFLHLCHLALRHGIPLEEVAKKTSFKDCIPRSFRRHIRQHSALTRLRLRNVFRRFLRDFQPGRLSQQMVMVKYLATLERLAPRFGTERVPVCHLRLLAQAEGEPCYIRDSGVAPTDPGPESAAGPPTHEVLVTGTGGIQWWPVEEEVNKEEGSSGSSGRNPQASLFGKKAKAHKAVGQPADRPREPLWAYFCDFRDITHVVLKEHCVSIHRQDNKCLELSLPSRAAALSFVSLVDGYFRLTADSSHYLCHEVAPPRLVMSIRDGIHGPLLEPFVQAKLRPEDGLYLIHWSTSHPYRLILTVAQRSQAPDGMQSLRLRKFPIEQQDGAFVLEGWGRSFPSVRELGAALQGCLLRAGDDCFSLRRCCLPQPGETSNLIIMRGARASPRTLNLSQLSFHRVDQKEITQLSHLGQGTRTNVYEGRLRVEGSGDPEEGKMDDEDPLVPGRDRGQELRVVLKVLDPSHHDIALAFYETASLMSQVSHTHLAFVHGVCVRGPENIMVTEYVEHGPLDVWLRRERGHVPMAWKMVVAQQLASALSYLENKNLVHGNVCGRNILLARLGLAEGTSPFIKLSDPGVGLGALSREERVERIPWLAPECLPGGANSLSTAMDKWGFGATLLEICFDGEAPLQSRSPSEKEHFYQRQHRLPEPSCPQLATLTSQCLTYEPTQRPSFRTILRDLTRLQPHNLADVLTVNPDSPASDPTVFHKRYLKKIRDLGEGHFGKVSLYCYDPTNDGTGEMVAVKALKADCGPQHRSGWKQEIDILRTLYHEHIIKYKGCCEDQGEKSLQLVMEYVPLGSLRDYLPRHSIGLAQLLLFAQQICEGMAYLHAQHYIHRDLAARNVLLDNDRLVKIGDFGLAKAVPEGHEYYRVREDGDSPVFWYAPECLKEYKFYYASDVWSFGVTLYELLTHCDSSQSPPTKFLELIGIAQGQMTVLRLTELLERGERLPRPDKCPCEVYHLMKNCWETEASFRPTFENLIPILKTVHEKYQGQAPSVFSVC

SMILES	Caco Kp (Caco-2 cell monolayers)	JAK 1 (pKi) (JAK1)	Tall-1 (pIC50) [1, 2]	JAK 3 (pKi) (JAK3)	JAK3 (pKi)-JAK1 (pKi) (JAK3; [3])	Tyk 2 (pKi) (Tyk2)	JAK 2 (pKi) (JAK2)	Tall-1 (pIC50) ([1]; IL-2 stimulated pSTAT5 in Tall-1 T cells)	JAK3 (pKi)-JAK1 (pKi) (JAK3; selectivity, difference of pKi values)
C=CC(=O)N1CC(CCn2c(=O)ccc3cnc(Nc4ccc(C5CCN(C)CC5)cc4)nc32)C1 [Example 77]	A (A represents a value below 5×10^−6 cm/sec)	E (E represents a pKi value of 7 or below (Ki of 100 nM or above))	B (B represents a pC50 value between 6.7 (included) and 7.5 (IC50 between 200 nM and 32 nM))	B (B represents pKi value between 9 and 10 (Ki between 1 nM and 0.1 nM))	A (A represents a value of 3 or above)	–	–	–	–
C=CC(=O)N1CC(CCn2c(=O)ccc3cnc(Nc4ccc(N5CCOCC5=O)cc4)nc32)C1 [Example 47]	A (A represents a value below 5×10^−6 cm/sec)	E (E represents a pKi value of 7 or below (Ki of 100 nM or above))	C (C represents a pIC50 value between 6 and 6.7 (IC50 between 1 μM and 200 nM))	B (B represents pKi value between 9 and 10 (Ki between 1 nM and 0.1 nM))	A (A represents a value of 3 or above)	–	–	–	–
C=CC(=O)N1CC(CCn2c(=O)ccc3cnc(Nc4ccc(N5CCSCC5)nc4)nc32)C1 [Example 54]	C (C represents a value between 10×10^−6 and 30×10^−6 cm/sec)	E (E represents a pKi value of 7 or below (Ki of 100 nM or above))	C (C represents a pIC50 value between 6 and 6.7 (IC50 between 1 μM and 200 nM))	B (B represents pKi value between 9 and 10 (Ki between 1 nM and 0.1 nM))	A (A represents a value of 3 or above)	–	–	–	–
C=CC(=O)N1CC(CCn2c(=O)ccc3cnc(Nc4ccc(-n5ccnc5)cc4)nc32)C1 [Example 73]	–	E (E represents a pKi value of 7 or below (Ki of 100 nM or above))	C (C represents a pIC50 value between 6 and 6.7 (IC50 between 1 μM and 200 nM))	C (C represents a pKi value between 8 and 9 (Ki between 10 nM and 1 nM))	B (B represents a value of 2.5 to 3)	E (E represents a pKi value of 7 or below (Ki of 100 nM or above))	E (E represents a pKi value of 7 or below (Ki of 100 nM or above))	–	–
C=CC(=O)N1CC(CCn2c(=O)ccc3cnc(Nc4cccc(C(=O)N5CCCCC5)c4)nc32)C1 [Example 64]	–	E (E represents a pKi value of 7 or below (Ki of 100 nM or above))	C (C represents a pIC50 value between 6 and 6.7 (IC50 between 1 μM and 200 nM))	B (B represents pKi value between 9 and 10 (Ki between 1 nM and 0.1 nM))	A (A represents a value of 3 or above)	E (E represents a pKi value of 7 or below (Ki of 100 nM or above))	E (E represents a pKi value of 7 or below (Ki of 100 nM or above))	–	–
C=CC(=O)N1CCN(CCn2c(=O)ccc3cnc(Nc4cnn(-c5ccccc5)c4)nc32)[C@@H](C)C1 [Example 235]	–	E (E represents a pKi value of 7 or below (Ki of 100 nM or above))	B (B represents a pC50 value between 6.7 (included) and 7.5 (IC50 between 200 nM and 32 nM))	B (B represents pKi value between 9 and 10 (Ki between 1 nM and 0.1 nM))	A (A represents a value of 3 or above)	E (E represents a pKi value of 7 or below (Ki of 100 nM or above))	E (E represents a pKi value of 7 or below (Ki of 100 nM or above))	–	–
C=CC(=O)N1CCN(CCn2c(=O)ccc3cnc(Nc4ccc(C5CCN(C)CC5)cc4)nc32)CC1 [Example 87]	–	E (E represents a pKi value of 7 or below (Ki of 100 nM or above))	A (A represents a pIC50 value≥7.5 (IC50≤32 nM))	B (B represents pKi value between 9 and 10 (Ki between 1 nM and 0.1 nM))	A (A represents a value of 3 or above)	E (E represents a pKi value of 7 or below (Ki of 100 nM or above))	E (E represents a pKi value of 7 or below (Ki of 100 nM or above))	–	–
C=CC(=O)N1CCN(CCn2c(=O)ccc3cnc(Nc4ccc(N5CCN(C)CC5)c(F)c4)nc32)CC1 [Example 39]	–	E (E represents a pKi value of 7 or below (Ki of 100 nM or above))	B (B represents a pC50 value between 6.7 (included) and 7.5 (IC50 between 200 nM and 32 nM))	B (B represents pKi value between 9 and 10 (Ki between 1 nM and 0.1 nM))	A (A represents a value of 3 or above)	E (E represents a pKi value of 7 or below (Ki of 100 nM or above))	E (E represents a pKi value of 7 or below (Ki of 100 nM or above))	–	–
C=CC(=O)N1CC(CCn2c(=O)ccc3cnc(Nc4cccc(C(=O)N5CCOCC5)c4)nc32)C1 [Example 65]	–	E (E represents a pKi value of 7 or below (Ki of 100 nM or above))	C (C represents a pIC50 value between 6 and 6.7 (IC50 between 1 μM and 200 nM))	B (B represents pKi value between 9 and 10 (Ki between 1 nM and 0.1 nM))	A (A represents a value of 3 or above)	E (E represents a pKi value of 7 or below (Ki of 100 nM or above))	E (E represents a pKi value of 7 or below (Ki of 100 nM or above))	–	–
C=CC(=O)N1CC(CCn2c(=O)ccc3cnc(Nc4cnn(Cc5ccccc5)c4)nc32)C1 [Example 239]	–	E (E represents a pKi value of 7 or below (Ki of 100 nM or above))	–	B (B represents pKi value between 9 and 10 (Ki between 1 nM and 0.1 nM))	–	E (E represents a pKi value of 7 or below (Ki of 100 nM or above))	E (E represents a pKi value of 7 or below (Ki of 100 nM or above))	B (B represents a pC50 value between 6.7 (included) and 7.5 (IC50 between 200 nM and 32 nM))	A (A represents a value of 3 or above)
C=CC(=O)N1CC(CCn2c(=O)ccc3cnc(Nc4ccc(N5CCN(C(C)=O)CC5)c(Cl)c4)nc32)C1 [Example 182]	–	E (E represents a pKi value of 7 or below (Ki of 100 nM or above))	B (B represents a pC50 value between 6.7 (included) and 7.5 (IC50 between 200 nM and 32 nM))	A (A represents a pKi value≥10 (Ki≤0.1 nM))	A (A represents a value of 3 or above)	E (E represents a pKi value of 7 or below (Ki of 100 nM or above))	E (E represents a pKi value of 7 or below (Ki of 100 nM or above))	–	–
C[C@H]1CN(c2ccc(Nc3ncc4ccc(=O)n(CCC5CN(C(=O)/C=C/CN(C)C)C5)c4n3)cc2)CCN1C [Example 227]	–	E (E represents a pKi value of 7 or below (Ki of 100 nM or above))	C (C represents a pIC50 value between 6 and 6.7 (IC50 between 1 μM and 200 nM))	B (B represents pKi value between 9 and 10 (Ki between 1 nM and 0.1 nM))	A (A represents a value of 3 or above)	E (E represents a pKi value of 7 or below (Ki of 100 nM or above))	E (E represents a pKi value of 7 or below (Ki of 100 nM or above))	–	–
C=CC(=O)N1CCN(CCn2c(=O)ccc3cnc(Nc4ccc(N5CCN(C)CC5)cc4)nc32)[C@@H](C)C1 [Example 160]	–	E (E represents a pKi value of 7 or below (Ki of 100 nM or above))	A (A represents a pIC50 value≥7.5 (IC50≤32 nM))	B (B represents pKi value between 9 and 10 (Ki between 1 nM and 0.1 nM))	A (A represents a value of 3 or above)	E (E represents a pKi value of 7 or below (Ki of 100 nM or above))	E (E represents a pKi value of 7 or below (Ki of 100 nM or above))	–	–
